biological target: SEB (Staphylococcus aureus, UniProt P01552); assay type: binding
Sequence (P01552 28-266 limits assumed): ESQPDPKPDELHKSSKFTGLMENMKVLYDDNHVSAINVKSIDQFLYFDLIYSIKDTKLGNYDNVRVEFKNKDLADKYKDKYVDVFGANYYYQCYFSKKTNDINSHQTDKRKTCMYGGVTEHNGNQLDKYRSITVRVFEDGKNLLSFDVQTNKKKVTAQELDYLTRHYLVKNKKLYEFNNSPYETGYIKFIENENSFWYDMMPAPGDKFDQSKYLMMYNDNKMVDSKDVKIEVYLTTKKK

| Substance | binding of SEB to glycosphingolipid |
| --- | --- |
| lactosylceramide [LacCer] | did not significantly bind |
| glucosylceramide [GlcCer] | did not significantly bind |
| galactosylceramide [GalCer] | did not significantly bind |
| digalactosylceramide [diGalCer] | strong binding |

Reference: patent US6528272B2 (priority 1997, dated 2003)
